Five compounds from PMC4757856 (Medchemcomm, 2015) can be followed below.

Some results are limits rather than exact numbers.

The target in one series is T1, PfNMT (Plasmodium falciparum, UniProt Q9U419).
T1 sequence (Q9U419 1-410): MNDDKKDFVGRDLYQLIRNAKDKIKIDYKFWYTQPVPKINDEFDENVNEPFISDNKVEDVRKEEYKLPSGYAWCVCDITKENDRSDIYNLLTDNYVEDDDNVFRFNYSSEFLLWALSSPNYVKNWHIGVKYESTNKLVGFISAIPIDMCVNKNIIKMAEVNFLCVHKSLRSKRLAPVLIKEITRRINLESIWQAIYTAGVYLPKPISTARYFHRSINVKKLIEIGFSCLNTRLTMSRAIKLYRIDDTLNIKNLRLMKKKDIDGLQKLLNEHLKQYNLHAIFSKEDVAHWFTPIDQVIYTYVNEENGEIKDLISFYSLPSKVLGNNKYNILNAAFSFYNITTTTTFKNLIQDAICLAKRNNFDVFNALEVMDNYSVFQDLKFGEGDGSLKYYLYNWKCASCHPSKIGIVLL
Description: NMT enzyme inhibition assay. It is filed as biochemical. To be noted: for LipE: LipE = pKi (PfNMT) - clog P.

Another series has as its system HepG2 cell line. The series is described as follows: HepG2 toxicity assay. The class given is cell-based, human. To be noted: 48 hours, MTS.

For the compound `c1cnc(OC2CCNCC2)c(-c2nc(Cc3cccc4ncccc34)no2)c1` [Compound 30], the LipE at PfNMT stood at 5.63. For `Cc1nn(C)c(C)c1Cc1noc(-c2cccnc2OC2CCNCC2)n1` [Compound 25], the LD50 in the series on HepG2 cell line was above 100 µM.

For `c1ccc(Cc2noc(-c3cccnc3OC3CCNCC3)n2)cc1` [Compound 7], the “fold improvement in enzyme affinity” value at PfNMT (PfNMT, 7 vs. 3) came to 10 fold. Take `Cc1nn(C)c(C)c1Cc1noc(-c2cccnc2OC2CCN(C(C)C)CC2)n1` [Compound 28]: the LD50 in the series on HepG2 cell line was above 100 µM. The compound `COc1cccc(Cc2noc(-c3ccccc3OC3CCNCC3)n2)c1` [Compound 18] had a LipE on PfNMT of 3.32.
